Measured values as given in publication PMC7835878, “A Selective Competitive Inhibitor of Aldehyde Dehydrogenase 1A3 Hinders Cancer Cell Growth, Invasiveness and Stemness In Vitro” (Cancers, 2021).

Experiments:
[1] = target: T1, Aldehyde dehydrogenase 1A3 (ALDH1A3) (Homo sapiens, UniProt P47895); test: X-ray crystal structure of the complex with NR6 (protein preincubated with […] NAD+); type: binding
T1 sequence (P47895 2-512): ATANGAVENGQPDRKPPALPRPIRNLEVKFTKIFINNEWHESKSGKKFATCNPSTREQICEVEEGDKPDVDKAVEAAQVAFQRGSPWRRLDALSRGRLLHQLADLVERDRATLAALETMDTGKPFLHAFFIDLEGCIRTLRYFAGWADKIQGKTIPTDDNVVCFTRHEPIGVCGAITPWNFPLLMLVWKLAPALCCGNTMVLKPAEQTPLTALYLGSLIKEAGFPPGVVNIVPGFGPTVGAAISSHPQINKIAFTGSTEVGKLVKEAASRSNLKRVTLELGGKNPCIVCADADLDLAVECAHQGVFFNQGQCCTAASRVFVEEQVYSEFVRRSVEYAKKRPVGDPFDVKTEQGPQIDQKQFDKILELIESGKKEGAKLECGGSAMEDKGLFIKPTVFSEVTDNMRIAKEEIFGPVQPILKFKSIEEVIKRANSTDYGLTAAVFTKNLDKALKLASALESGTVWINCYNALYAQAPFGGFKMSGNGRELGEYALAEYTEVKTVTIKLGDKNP

[2] = target: the molecule itself; test: crystal structure; ALDH1A3 at 8 mg/mL preincubated with 1 mM NAD+ and 300 uM NR6; sitting drop vapor diffusion, 2.4 M sodium malonate pH 7.0, 20 °C; space group P2(1)22(1), two molecules per asymmetric unit

In the case of `NC(=O)c1ccc[n+]([C@@H]2O[C@H](COP(=O)([O-])OP(=O)(O)OC[C@H]3O[C@@H](n4cnc5c(N)ncnc54)[C@H](O)[C@@H]3O)[C@@H](O)[C@H]2O)c1` [NAD+], the “X-ray crystal structure of the complex with NR6 (protein preincubated with 1 mM)” value [1] is reported as “both are bonded with one molecule of NAD^+ and one molecule of NR6”.

B1: human aldehyde dehydrogenase 1A3 (enzyme)
chain: MATANGAVENGQPDRKPPALPRPIRNLEVKFTKIFINNEWHESKSGKKFATCNPSTREQICEVEEGDKPDVDKAVEAAQVAFQRGSPWRRLDALSRGRLLHQLADLVERDRATLAALETMDTGKPFLHAFFIDLEGCIRTLRYFAGWADKIQGKTIPTDDNVVCFTRHEPIGVCGAITPWNFPLLMLVWKLAPALCCGNTMVLKPAEQTPLTALYLGSLIKEAGFPPGVVNIVPGFGPTVGAAISSHPQINKIAFTGSTEVGKLVKEAASRSNLKRVTLELGGKNPCIVCADADLDLAVECAHQGVFFNQGQCCTAASRVFVEEQVYSEFVRRSVEYAKKRPVGDPFDVKTEQGPQIDQKQFDKILELIESGKKEGAKLECGGSAMEDKGLFIKPTVFSEVTDNMRIAKEEIFGPVQPILKFKSIEEVIKRANSTDYGLTAAVFTKNLDKALKLASALESGTVWINCYNALYAQAPFGGFKMSGNGRELGEYALAEYTEVKTVTIKLGDKNP
notes: Aldehyde dehydrogenase 1A3 (ALDH1A3), human, recombinant; also called ALDH1A3; hALDH1A3; source: recombinant, purified
B1: binds [2].
